The source of these data is PubChem BioAssay (NCI).

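Cultured in 96-well plates, cells were exposed to test compound for 48 hours across five concentrations. Abbreviation: GI50, concentration required for 50% inhibition of growth. TGI is the concentration that stops growth completely.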

Among the test systems are OVCAR-3 ovarian; SF-539 CNS; M14 melanoma; HCT-116 colon; HCC-2998 colon; HS 578T breast; 786-0 renal; SW-620 colon; SNB-75 CNS; OVCAR-5 ovarian.
Common to all, as to assay: NCI-60 cell line screen, 48 h

For `CN1CCN(Cc2ccc(NC(=O)c3cncc(C#Cc4cnc(N)cc4C#N)c3)cc2C(F)(F)F)CC1`, the GI50 in the assay with OVCAR-3 ovarian is 4.88 µM; in the assay on SF-539 CNS it was 0.959 µM; in the assay on M14 melanoma it was 0.623 µM; in the assay with HCT-116 colon, 1.43 µM; with HCC-2998 colon it was 3.9 µM; with HS 578T breast, 1.46 µM. In addition, the GI50 was 4.38 µM in the assay on 786-0 renal, 2.92 µM in the assay with SW-620 colon, 5.92 µM in the assay with SNB-75 CNS and 2.76 µM in the assay with OVCAR-5 ovarian. The TGI with OVCAR-3 ovarian was 20.4 µM; in the assay with SF-539 CNS, 3.55 µM; in the assay on M14 melanoma, 3.86 µM; with HCT-116 colon, 9.85 µM; in the assay with HCC-2998 colon, 15.4 µM; in the assay with HS 578T breast it was 7.46 µM. Moreover, the TGI in the assay with 786-0 renal was 16 µM; with SW-620 colon it was 11.4 µM; with SNB-75 CNS, 19.8 µM; with OVCAR-5 ovarian it was 14.2 µM.
In the case of `O=S1(=O)N(Cc2ccccc2)[C@@H](Cc2ccccc2)[C@H](O)[C@H](O)[C@H](Cc2ccccc2)N1Cc1ccccc1`, the GI50 in the assay with OVCAR-3 ovarian is 2.9 µM; in the assay on SF-539 CNS it was 3.37 µM; with M14 melanoma it was 3.04 µM; in the assay on HCT-116 colon, 2.43 µM; in the assay with HCC-2998 colon, 3.41 µM; with HS 578T breast, 3.27 µM. Also, the GI50 in the assay on 786-0 renal is 3.24 µM; in the assay on SW-620 colon, 3.18 µM; with SNB-75 CNS, 2.31 µM; with OVCAR-5 ovarian, 3.57 µM. For the same compound, the TGI with OVCAR-3 ovarian was 6.07 µM; in the assay on SF-539 CNS, 6.76 µM; in the assay on M14 melanoma, 6.07 µM; with HCT-116 colon it was 5.05 µM; with HCC-2998 colon, 6.2 µM; in the assay on HS 578T breast, 8.38 µM. Besides, the TGI with 786-0 renal was 6.86 µM; in the assay on SW-620 colon, 7.12 µM; with SNB-75 CNS, 7.28 µM; in the assay on OVCAR-5 ovarian, 9.1 µM.
Consider `Oc1c(Cl)cc(Cl)c2ccc(Cn3cc(-c4cc(C(F)(F)F)cc(C(F)(F)F)c4)nn3)nc12`, for which the GI50 with OVCAR-3 ovarian was 1.28 µM; with SF-539 CNS it was 1.53 µM; in the assay with M14 melanoma it was 1.61 µM; in the assay with HCT-116 colon it was 0.481 µM; in the assay with HCC-2998 colon it was 7.72 µM; in the assay on HS 578T breast, 2.98 µM. Further, the GI50 in the assay on 786-0 renal is 1.97 µM; in the assay on SW-620 colon, 0.473 µM; in the assay with SNB-75 CNS it was 1.47 µM; with OVCAR-5 ovarian, 2.9 µM. Besides, the TGI came out at 2.56 µM in the assay with OVCAR-3 ovarian; 2.94 µM with SF-539 CNS; 3.45 µM in the assay on M14 melanoma; 1.76 µM with HCT-116 colon; 21.4 µM in the assay with HCC-2998 colon; 9.3 µM in the assay on HS 578T breast. Besides, the TGI in the assay with 786-0 renal is 4.47 µM; with SW-620 colon it was 1.81 µM; in the assay on SNB-75 CNS, 8.09 µM; in the assay with OVCAR-5 ovarian it was 9.23 µM.
Take `Cc1ccc2nc(-c3ccc(OCC(=O)N=Nc4c(O)[nH]c5ccccc45)cc3)[nH]c2c1`: the GI50 in the assay on OVCAR-3 ovarian is 1.97 µM; in the assay on SF-539 CNS it was 3.51 µM; with M14 melanoma, 5.43 µM; in the assay on HCT-116 colon, 2.26 µM; in the assay on HCC-2998 colon it was 4.1 µM; with HS 578T breast it was 11.4 µM. Moreover, the GI50 was 2.06 µM with 786-0 renal, 2.02 µM in the assay on SW-620 colon, 13 µM with SNB-75 CNS and 19.1 µM with OVCAR-5 ovarian. The TGI in the assay with OVCAR-3 ovarian is 3.79 µM; in the assay with SF-539 CNS, 13.9 µM; in the assay with M14 melanoma, greater than 100 µM; in the assay on HCT-116 colon it was 5.35 µM; in the assay with HCC-2998 colon, 20.5 µM; with HS 578T breast it was 42.3 µM. Besides, the TGI with 786-0 renal was 4.38 µM; in the assay on SW-620 colon, 4.32 µM; with SNB-75 CNS, 38.5 µM; in the assay with OVCAR-5 ovarian, greater than 100 µM.
Turning to `CCCCCCCC(=O)OCCCC1[C@]2(C)CC[C@@]3(C)C([C@H](C)CCC=C(C)C)CC[C@]3(C)C2CC[C@]12OC2(C)C` (stereo not given in full), the GI50 was 24.9 µM in the assay on OVCAR-3 ovarian; 26.5 µM in the assay on SF-539 CNS; greater than 100 µM in the assay with M14 melanoma; 52.2 µM with HCT-116 colon; 18.6 µM in the assay on HCC-2998 colon; 40.3 µM with HS 578T breast. The GI50 is greater than 100 µM in the assay on 786-0 renal, 40.4 µM in the assay on SW-620 colon, greater than 100 µM in the assay with SNB-75 CNS and greater than 100 µM in the assay with OVCAR-5 ovarian. In addition, the TGI in the assay with OVCAR-3 ovarian was 65.2 µM; in the assay on SF-539 CNS it was 59.5 µM; with M14 melanoma it was greater than 100 µM; in the assay on HCT-116 colon, greater than 100 µM; in the assay with HCC-2998 colon, 47.5 µM; in the assay with HS 578T breast, greater than 100 µM. Also, the TGI in the assay on 786-0 renal, in the assay with SW-620 colon, with SNB-75 CNS and with OVCAR-5 ovarian was greater than 100 µM each time.
For the compound `C=C/C(C)=C/C[C@]1(C)[C@H](C)[C@@H](OC(=O)CCC)[C@H](O)[C@@]23C(=C[C@H](OC)C[C@@H]12)[C@@H](OC(=O)CCC)O[C@H]3OC(C)=O`, the GI50 was 0.191 µM in the assay with OVCAR-3 ovarian; 0.566 µM in the assay with SF-539 CNS; 0.881 µM with M14 melanoma; 0.495 µM in the assay with HCT-116 colon; 0.238 µM in the assay on HCC-2998 colon; 1.13 µM with HS 578T breast. Further, the GI50 with 786-0 renal was 0.287 µM; with SW-620 colon, 0.333 µM; in the assay with SNB-75 CNS, 1.21 µM; with OVCAR-5 ovarian it was 0.576 µM. The TGI in the assay on OVCAR-3 ovarian is 0.4 µM; with SF-539 CNS, 1.6 µM; in the assay on M14 melanoma it was 2.55 µM; in the assay on HCT-116 colon, 1.96 µM; in the assay with HCC-2998 colon it was 0.71 µM; with HS 578T breast it was 3.38 µM. Moreover, the TGI in the assay on 786-0 renal turned out to be 0.888 µM; in the assay with SW-620 colon it was 1.21 µM; in the assay with SNB-75 CNS, 2.47 µM; with OVCAR-5 ovarian, 2.54 µM.
As for `CCn1c(-c2cc3c([nH]c4ccccc43)c(-c3cccc(O)c3)n2)n[nH]c1=S`, the GI50 with OVCAR-3 ovarian is 3.13 µM; in the assay on SF-539 CNS it was 2.42 µM; in the assay on M14 melanoma, 2.57 µM; in the assay on HCT-116 colon it was 3.88 µM; in the assay with HCC-2998 colon, 4.77 µM; in the assay with HS 578T breast, 2.21 µM. In addition, the GI50 with 786-0 renal was 2.29 µM; with SW-620 colon, 4.15 µM; in the assay on SNB-75 CNS it was 1.26 µM; in the assay on OVCAR-5 ovarian, 6.34 µM. In addition, the TGI in the assay on OVCAR-3 ovarian was 11.4 µM; with SF-539 CNS, 9.27 µM; with M14 melanoma, 11.6 µM; in the assay on HCT-116 colon, 15 µM; in the assay with HCC-2998 colon, 17.5 µM; with HS 578T breast, 9.17 µM. Moreover, the TGI was determined as 6.31 µM in the assay with 786-0 renal, 18.9 µM with SW-620 colon, 4.85 µM in the assay on SNB-75 CNS and 32.9 µM in the assay on OVCAR-5 ovarian.
